Consider 19 compounds from US11498930B2 (BLUERAY THERAPEUTICS (SHANGHAI) CO., LTD., priority 2018, dated 2022).

The target in assay [1] is SHP2^E76A protein (Homo sapiens (Human), UniProt Q06124, E76A). Kind of assay: SHP2 enzyme activity inhibition experiment. The assay is classed as biochemical. In short, it runs like this: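 Compounds tested at 10 concentrations in 3-fold serial dilution. IC50 from a four-parameter Hill-slope nonlinear fit of enzyme activity versus concentration.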
Assay [2] concerns phosphorylation level of intracellular protein kinase (ERK) in MOLM13 cells. Put plainly: Phosphorylated protein kinase (p-ERK) cell experiment (AlphaLISA). Type of assay: cell-based. The following applies: Homo sapiens, MOLM-13, MOLM13 cells. As for the experimental part: The inhibitory activities of the compounds on the phosphorylation level of intracellular protein kinase (ERK) were determined by AlphaLISA method.
Firstly, the cells were treated with the compounds. The compounds to be tested were subjected to 3-fold dilution with 100% DMSO, and a total of 9 different concentration gradients were set. MOLM13 cells were then seeded into 96-well plates at a density of 30,000 cells per well in a volume of 100 µL per well. […] of DMSO or the test compounds with different concentrations was then transferred into each well, setting two duplicates for each concentration, and the final concentration of DMSO was controlled at 0.5%.
Secondly, the cells were lysed. After 2 hours of cell treatment, the medium was removed, and the cells were washed 3 times with phosphate buffered saline. 50 µL of freshly prepared lysis buffer was added to each well, and the plates were shaken and kept at room temperature for 10 minutes.
Thirdly, the phosphorylated extracellular signal-regulated kinase (p-ERK) was detected by AlphaLISA@ SureFire® Ultra™ p-ERK 1/2 (Thr202/Tyr204) kit (Perkin Elmer, ALSU-PERK-A10K). 10 µL of the above lysate was transferred to a 384-well plate (Perkin Elmer, 6005350), and the phosphorylation level of the extracellular signal-regulated kinase of the sample was detected according to the product instructions. The signal was read using AlphaScreen detector on Spectra max i3 (Molecular Devices). The percentage of inhibition (%) was calculated by the following formula: Inhibition percentage(%)=(1−p-ERK signal of compound-treated cells/p-ERK signal of DMSO-treated cells)*100

The test system of assay [3] is MOLM-13 cells. Kind of assay: MOLM-13 cell proliferation experiment. The assay is classed as cell-based. As for the experimental part: After 3 days, 5 µL of CellTiter-Glo reagent (Promega, ZG7572) was added to each well, and the plates were kept at room temperature in the dark for 10 minutes. The […] was detected by Spectra max i3 (Molecular Devices). The relative growth rate of the treated cells was compared with that of DMSO control.

Setting [4] is: SHP2 enzyme activity, Tables 1.1 and 1.2, read-out: IC50.
Setting [5] is: Table 4, read-out: SHP2 enzyme activity IC50.
The mark [6] stands for this setting: p-ERK, 2 hours of cell treatment, Tables 2.1 and 2.2, read-out: IC50.
[7] abbreviates: Homo sapiens, MOLM-13, 72 h, MOLM-13 cell proliferation, 3 days, Tables 3.1 and 3.2, read-out: IC50.
The mark [8] stands for this setting: Homo sapiens, MOLM-13, read-out: MOLM-13 cell proliferation IC50.

Structures are written as SMILES. Where two headings read alike, the source gives them in different places.

SHP2^E76A protein, sequence (Q06124 whole entry E76A): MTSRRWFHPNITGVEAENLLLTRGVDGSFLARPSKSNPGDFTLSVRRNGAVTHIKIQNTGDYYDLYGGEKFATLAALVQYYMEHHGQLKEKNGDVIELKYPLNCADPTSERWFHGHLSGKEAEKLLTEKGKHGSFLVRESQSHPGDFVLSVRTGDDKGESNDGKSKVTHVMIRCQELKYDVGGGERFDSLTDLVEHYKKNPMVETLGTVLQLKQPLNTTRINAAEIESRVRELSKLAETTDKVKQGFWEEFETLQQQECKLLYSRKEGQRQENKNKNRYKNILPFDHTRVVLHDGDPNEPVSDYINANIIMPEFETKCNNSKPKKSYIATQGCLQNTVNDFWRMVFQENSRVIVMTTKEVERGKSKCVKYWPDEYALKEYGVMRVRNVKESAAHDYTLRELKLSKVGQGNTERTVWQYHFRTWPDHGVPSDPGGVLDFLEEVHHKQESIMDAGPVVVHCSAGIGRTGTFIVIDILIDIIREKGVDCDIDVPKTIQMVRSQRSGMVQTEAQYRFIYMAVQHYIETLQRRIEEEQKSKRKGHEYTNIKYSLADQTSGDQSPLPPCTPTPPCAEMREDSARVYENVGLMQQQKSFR

For the compound `Nc1cc(Sc2cnc(N3CCC4(CCC[C@H]4N)CC3)n3ccnc23)c(Cl)cn1` [(R)-8-(8-((2-amino-5-chloropyridin-4-yl)thio)imidazo[1,2-c]pyrimidin-5-yl)-8-azaspiro[4.5]decan-1-amine], the IC50 was below 100 nM in assay [1] (setting [4]); 25 nM in assay [1] (setting [5]); 32 nM in assay [2] (Table 4, read-out: p-ERK IC50); below 100 nM in assay [2] (setting [6]); below 100 nM in assay [3] (setting [7]); 43 nM in assay [3] (setting [8]).

On to `Nc1cc(Sc2cnc(N3CCC4(CC3)COC[C@H]4N)n3ccnc23)c(Cl)c(Cl)n1` [(S)-8-(8-((6-amino-2,3-dichloropyridin-4-yl)thio)imidazo[1,2-c]pyrimidin-5-yl)-2-oxa-8-azaspiro[4.5]decan-4-amine], for which the IC50 in assay [1] (setting [4]) was below 100 nM; in assay [1] (setting [5]), 9 nM; in assay [2] (Table 4, read-out: p-ERK IC50), 28 nM; in assay [2] (setting [6]) it was below 100 nM; in assay [3] (setting [7]), below 100 nM; in assay [3] (setting [8]) it was 54 nM.

For `CC1C[C@@H](N)C2(CCN(c3ncc(Sc4cc(N)nc(Cl)c4Cl)c4nncn34)CC2)C1` (stereo partly drawn) [(1R)-8-(8-((6-amino-2,3-dichloropyridin-4-yl)thio)-[1,2,4]triazolo[4,3-c]pyrimidin-5-yl)-3-methyl-8-azaspiro[4.5]decan-1-amine], the IC50 in assay [1] (setting [4]) was below 100 nM; in assay [1] (setting [5]), 2 nM; in assay [2] (Table 4, read-out: p-ERK IC50), 47 nM; in assay [2] (setting [6]) it was below 100 nM; in assay [3] (setting [7]) it was below 100 nM; in assay [3] (setting [8]) it was 17 nM.

With `Nc1cc(Sc2cnc(N3CCC4(CCC[C@H]4N)CC3)n3ccnc23)c(Cl)c(Cl)n1` [(R)-8-(8-((6-amino-2,3-dichloropyridin-4-yl)thio)imidazo[1,2-c]pyrimidin-5-yl)-8-azaspiro[4.5]decan-1-amine], the IC50 in assay [1] (setting [4]) was below 100 nM; in assay [1] (setting [5]), 12 nM; in assay [2] (Table 4, read-out: p-ERK IC50) it was 9 nM; in assay [2] (setting [6]), below 100 nM; in assay [3] (setting [7]) it was below 100 nM; in assay [3] (setting [8]) it was 16 nM.

On to `N[C@@H]1CCCC12CCN(c1ncc(Sc3ccncc3C(F)(F)F)c3nccn13)CC2` [(R)-8-(8-((3-(trifluoromethyl)pyridin-4-yl)thio)imidazo[1,2-c]pyrimidin-5-yl)-8-azaspiro[4.5]decan-1-amine], for which the IC50 is below 100 nM in assay [1] (setting [4]), 100 to 1000 nM in assay [2] (setting [6]) and 100 to 1000 nM in assay [3] (setting [7]).

Regarding `CC1C[C@@H](N)C2(CCN(c3ncc(Sc4cccc(Cl)c4Cl)c4nncn34)CC2)C1` (stereo partly drawn) [(1R)-8-(8-((2,3-dichlorophenyl)thio)-[1,2,4]triazolo[4,3-c]pyrimidin-5-yl)-3-methyl-8-azaspiro[4.5]decan-1-amine], the IC50 is below 100 nM in assay [1] (setting [4]); 4 nM in assay [1] (setting [5]); 64 nM in assay [2] (Table 4, read-out: p-ERK IC50); below 100 nM in assay [3] (setting [7]); 59 nM in assay [3] (setting [8]).

`Nc1cc(Sc2cnc(N3CCC4(CC3)CC(F)(F)C[C@H]4N)n3ccnc23)c(Cl)c(Cl)n1` [(R)-8-(8-((6-amino-2,3-dichloropyridin-4-yl)thio)imidazo[1,2-c]pyrimidin-5-yl)-3,3-difluoro-8-azaspiro[4.5]decan-1-amine]: the IC50 was below 100 nM in assay [1] (setting [4]); 35 nM in assay [1] (setting [5]); 62 nM in assay [2] (Table 4, read-out: p-ERK IC50); below 100 nM in assay [2] (setting [6]); 100 to 1000 nM in assay [3] (setting [7]); 150 nM in assay [3] (setting [8]).

For `N[C@@H]1CC(O)CC12CCN(c1ncc(Sc3cccc(Cl)c3Cl)c3nccn13)CC2` (stereo partly shown), the IC50 was below 100 nM in assay [1] (setting [4]); 9 nM in assay [1] (setting [5]); 28 nM in assay [2] (Table 4, read-out: p-ERK IC50); below 100 nM in assay [2] (setting [6]); below 100 nM in assay [3] (setting [7]); 42 nM in assay [3] (setting [8]).

For `N[C@@H]1CCCC12CCN(c1ncc(Sc3cccc4ccccc34)c3nccn13)CC2` [(R)-8-(8-(naphthalen-1-ylthio)imidazo[1,2-c]pyrimidin-5-yl)-8-azaspiro[4.5]decan-1-amine], the IC50 in assay [1] (setting [4]) is below 100 nM; in assay [1] (setting [5]), 28 nM; in assay [2] (Table 4, read-out: p-ERK IC50), 490 nM; in assay [2] (setting [6]), 100 to 1000 nM; in assay [3] (setting [7]), 100 to 1000 nM; in assay [3] (setting [8]), 150 nM.

Turning to `CC1(N)CCN(c2ncc(Sc3ccnc(N)c3Cl)c3nncn23)CC1` [4-((5-(4-amino-4-methylpiperidin-1-yl)-[1,2,4]triazolo[4,3-c]pyrimidin-8-yl)thio)-3-chloropyridin-2-amine], the IC50 in assay [1] (setting [4]) lay within 100 to 1000 nM; in assay [2] (setting [6]), 1000 to 10000 nM; in assay [3] (setting [7]), 1000 to 10000 nM.

Take `N[C@@H]1CCCC12CCN(c1ncc(Sc3ccnc(Cl)c3Cl)c3nncn13)CC2` [(R)-8-(8-((2,3-dichloropyridin-4-yl)thio)-[1,2,4]triazolo[4,3-c]pyrimidin-5-yl)-8-azaspiro[4.5]decan-1-amine]: the IC50 in assay [1] (setting [4]) is below 100 nM; in assay [2] (setting [6]) it was 1000 to 10000 nM; in assay [3] (setting [7]), 100 to 1000 nM.

On to `CC1CCC2(CCN(c3ncc(Sc4cccc(Cl)c4Cl)c4nccn34)CC2)[C@@H]1N` (stereo partly drawn) [(1R)-8-(8-((2,3-dichlorophenyl)thio)imidazo[1,2-c]pyrimidin-5-yl)-2-methyl-8-azaspiro[4.5]decan-1-amine], for which the results for the IC50 in assay [1] (setting [4]), in assay [2] (setting [6]) and in assay [3] (setting [7]) were below 100 nM, 100 to 1000 nM and 100 to 1000 nM, respectively.

As to `N[C@@H]1CCCC12CCN(c1ncc(Sc3ccnc(Cl)c3Cl)c3nccn13)CC2` [(R)-8-(8-((2,3-dichloropyridin-4-yl)thio)imidazo[1,2-c]pyrimidin-5-yl)-8-azaspiro[4.5]decan-1-amine], the IC50 is below 100 nM in assay [1] (setting [4]); 57 nM in assay [1] (setting [5]); 159 nM in assay [2] (Table 4, read-out: p-ERK IC50); 100 to 1000 nM in assay [2] (setting [6]); below 100 nM in assay [3] (setting [7]); 42 nM in assay [3] (setting [8]).

As for `C[C@@H]1OCC2(CCN(c3ncc(Sc4cc(N)nc(Cl)c4Cl)c4nccn34)CC2)[C@@H]1N` [(3S,4S)-8-(8-((6-amino-2,3-dichloropyridin-4-yl)thio)imidazo[1,2-c]pyrimidin-5-yl)-3-methyl-2-oxa-8-azaspiro[4.5]decan-4-amine], the IC50 in assay [1] (setting [4]) was below 100 nM; in assay [1] (setting [5]) it was 10 nM; in assay [2] (Table 4, read-out: p-ERK IC50), 47 nM; in assay [2] (setting [6]), below 100 nM; in assay [3] (setting [7]), below 100 nM; in assay [3] (setting [8]), 50 nM.

On to `CN(C)c1nccc(Sc2cnc(N3CCC4(CCC[C@H]4N)CC3)n3ccnc23)c1Cl` [(R)-8-(8-((3-chloro-2-(dimethylamino)pyridin-4-yl)thio)imidazo[1,2-c]pyrimidin-5-yl)-8-azaspiro[4.5]decan-1-amine], for which the results for the IC50 in assay [1] (setting [4]), in assay [2] (setting [6]) and in assay [3] (setting [7]) were below 100 nM, 100 to 1000 nM and 100 to 1000 nM, respectively.

On to `Nc1cc(Sc2cnc(N3CCC4(CCC[C@H]4N)CC3)n3cnnc23)c(Cl)c(Cl)n1` [(R)-8-(8-((6-amino-2,3-dichloropyridin-4-yl)thio)-[1,2,4]triazolo[4,3-c]pyrimidin-5-yl)-8-azaspiro[4.5]decan-1-amine], for which the IC50 was below 100 nM in assay [1] (setting [4]); 20 nM in assay [1] (setting [5]); 750 nM in assay [2] (Table 4, read-out: p-ERK IC50); 100 to 1000 nM in assay [2] (setting [6]); 100 to 1000 nM in assay [3] (setting [7]); 303 nM in assay [3] (setting [8]).

Take `Cc1nc(N)cc(Sc2cnc(N3CCC4(CCC[C@H]4N)CC3)n3ccnc23)c1Cl` [(R)-8-(8-((6-amino-3-chloro-2-methyl-pyridin-4-yl)thio)imidazo[1,2-c]pyrimidin-5-yl)-8-azaspiro[4.5]decan-1-amine]: the IC50 was 17 nM in assay [1] (setting [5]); 37 nM in assay [2] (Table 4, read-out: p-ERK IC50); below 100 nM in assay [2] (setting [6]); 210 nM in assay [3] (setting [8]).

Take `Cc1nc(N)cc(Sc2cnc(N3CCC4(CC3)COC[C@H]4N)n3ccnc23)c1Cl` [(S)-8-(8-((6-amino-3-chloro-2-methyl-pyridin-4-yl)thio)imidazo[1,2-c]pyrimidin-5-yl)-2-oxa-8-azaspiro[4.5]decan-4-amine]: the IC50 in assay [1] (setting [4]) was below 100 nM; in assay [1] (setting [5]), 34 nM; in assay [2] (Table 4, read-out: p-ERK IC50), 160 nM; in assay [2] (setting [6]), 100 to 1000 nM; in assay [3] (setting [7]), 100 to 1000 nM; in assay [3] (setting [8]) it was 340 nM. Besides, in assay [3] (MOLM-13 cell proliferation, 3 days, Tables 3.1 and 3.2, read-out: IC50), the IC50 was below 100 nM.

As to `N[C@@H]1COCC12CCN(c1ncc(Sc3cccc(Cl)c3Cl)c3nncn13)CC2` [(S)-8-(8-((2,3-dichlorophenyl)thio)-[1,2,4]triazolo[4,3-c]pyrimidin-5-yl)-2-oxa-8-azaspiro[4.5]decan-4-amine], the IC50 is below 100 nM in assay [1] (setting [4]); 20 nM in assay [1] (setting [5]); 168 nM in assay [2] (Table 4, read-out: p-ERK IC50); 100 to 1000 nM in assay [2] (setting [6]); 100 to 1000 nM in assay [3] (setting [7]); 892 nM in assay [3] (setting [8]).
